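Values below derive from 48-hour exposures of cells grown in 96-well plates, with endpoints linearly interpolated between the two concentrations bracketing the appropriate inhibition level. GI50: concentration for 50% inhibition of growth. At the TGI there is no net growth.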
Columns and labels:
Test in all cases: NCI tumour cell line growth inhibition, 48 h
UO-31 renal = tested on: UO-31 renal
T-47D breast = tested on: T-47D breast
SF-268 CNS = tested on: SF-268 CNS
RPMI-8226 leukemia = tested on: RPMI-8226 leukemia
SK-OV-3 ovarian = tested on: SK-OV-3 ovarian
RXF 393 renal = tested on: RXF 393 renal
MALME-3M melanoma = tested on: MALME-3M melanoma
DU-145 prostate = tested on: DU-145 prostate
KM12 colon = tested on: KM12 colon
HOP-62 NSCLC = tested on: HOP-62 NSCLC
HCT-15 colon = tested on: HCT-15 colon
OVCAR-8 ovarian = tested on: OVCAR-8 ovarian
HOP-92 NSCLC = tested on: HOP-92 NSCLC
SR leukemia = tested on: SR leukemia
CAKI-1 renal = tested on: CAKI-1 renal
HCT-116 colon = tested on: HCT-116 colon
SK-MEL-2 melanoma = tested on: SK-MEL-2 melanoma
CCRF-CEM leukemia = tested on: CCRF-CEM leukemia
A498 renal = tested on: A498 renal
M14 melanoma = tested on: M14 melanoma
MDA-MB-231 breast = tested on: MDA-MB-231 breast
SW-620 colon = tested on: SW-620 colon
786-0 renal = tested on: 786-0 renal
HL-60(TB) leukemia = tested on: HL-60(TB) leukemia
BT-549 breast = tested on: BT-549 breast
NCI-H23 lung = tested on: NCI-H23 lung
SF-295 CNS = tested on: SF-295 CNS
UACC-257 melanoma = tested on: UACC-257 melanoma
SF-539 CNS = tested on: SF-539 CNS
OVCAR-3 ovarian = tested on: OVCAR-3 ovarian
PC-3 prostate = tested on: PC-3 prostate
LOX IMVI melanoma = tested on: LOX IMVI melanoma
K-562 leukemia = tested on: K-562 leukemia
SNB-19 CNS = tested on: SNB-19 CNS
ACHN renal = tested on: ACHN renal
HCC-2998 colon = tested on: HCC-2998 colon
NCI/ADR-RES ovarian = tested on: NCI/ADR-RES ovarian
HT29 colon = tested on: HT29 colon
SK-MEL-5 melanoma = tested on: SK-MEL-5 melanoma
MDA-MB-435 = tested on: MDA-MB-435
NCI-H522 lung = tested on: NCI-H522 lung
OVCAR-5 ovarian = tested on: OVCAR-5 ovarian
MCF7 breast = tested on: MCF7 breast
U251 CNS = tested on: U251 CNS
SK-MEL-28 melanoma = tested on: SK-MEL-28 melanoma
MOLT-4 leukemia = tested on: MOLT-4 leukemia
COLO 205 colon = tested on: COLO 205 colon
EKVX NSCLC = tested on: EKVX NSCLC
SN12C renal = tested on: SN12C renal
OVCAR-4 ovarian = tested on: OVCAR-4 ovarian
UACC-62 melanoma = tested on: UACC-62 melanoma
NCI-H460 lung = tested on: NCI-H460 lung
IGROV1 ovarian = tested on: IGROV1 ovarian
SNB-75 CNS = tested on: SNB-75 CNS
TK-10 renal = tested on: TK-10 renal
HS 578T breast = tested on: HS 578T breast
MDA-MB-468 breast = tested on: MDA-MB-468 breast
A549 NSCLC = tested on: A549 NSCLC
NCI-H226 lung = tested on: NCI-H226 lung

For `Fc1ccc(/C=C/c2nc3ccccc3n3c(-c4ccc(Cl)cc4)nnc23)cc1`, the GI50 (UO-31 renal) was 14.1 µM, the TGI (UO-31 renal) was > 100 µM and the GI50 (T-47D breast) was 14.3 µM. For the same molecule, the TGI (T-47D breast) was > 100 µM, the GI50 (SF-268 CNS) was 67.7 µM and the TGI (SF-268 CNS) was > 100 µM. For the same molecule, the GI50 (RPMI-8226 leukemia) was 16.7 µM, the TGI (RPMI-8226 leukemia) was > 100 µM and the GI50 (SK-OV-3 ovarian) was 62.6 µM. For the same molecule, the TGI (SK-OV-3 ovarian) was > 100 µM, the GI50 (RXF 393 renal) was 10.8 µM and the TGI (RXF 393 renal) was 72.5 µM. The GI50 (MALME-3M melanoma) was 11.3 µM, the TGI (MALME-3M melanoma) was 24.9 µM and the GI50 (DU-145 prostate) was 16.6 µM. For the same molecule, the TGI (DU-145 prostate) was 53.1 µM, the GI50 (KM12 colon) was > 100 µM and the TGI (KM12 colon) was > 100 µM. The GI50 (HOP-62 NSCLC) was 47.7 µM, the TGI (HOP-62 NSCLC) was > 100 µM and the GI50 (HCT-15 colon) was 9.36 µM. For the same molecule, the TGI (HCT-15 colon) was 25.4 µM, the GI50 (OVCAR-8 ovarian) was 16.2 µM and the TGI (OVCAR-8 ovarian) was 80.4 µM. For the same molecule, the GI50 (HOP-92 NSCLC) was 24.4 µM, the TGI (HOP-92 NSCLC) was > 100 µM and the GI50 (SR leukemia) was 2.44 µM. The TGI (SR leukemia) was 19.7 µM, the GI50 (CAKI-1 renal) was 44.2 µM and the TGI (CAKI-1 renal) was > 100 µM. The GI50 (HCT-116 colon) was 12.5 µM, the TGI (HCT-116 colon) was 41.2 µM and the GI50 (SK-MEL-2 melanoma) was 40.1 µM. For the same molecule, the TGI (SK-MEL-2 melanoma) was > 100 µM, the GI50 (CCRF-CEM leukemia) was 2.82 µM and the TGI (CCRF-CEM leukemia) was 8.8 µM. For the same molecule, the GI50 (A498 renal) was > 100 µM, the TGI (A498 renal) was > 100 µM and the GI50 (M14 melanoma) was 14.2 µM. It also gave a TGI (M14 melanoma) of 32.9 µM, a GI50 (MDA-MB-231 breast) of 20 µM and a TGI (MDA-MB-231 breast) of 88.4 µM. For the same molecule, the GI50 (SW-620 colon) was 11.3 µM, the TGI (SW-620 colon) was 25.7 µM and the GI50 (786-0 renal) was 31.5 µM. For the same molecule, the TGI (786-0 renal) was > 100 µM, the GI50 (HL-60(TB) leukemia) was 27.4 µM and the TGI (HL-60(TB) leukemia) was > 100 µM. It also gave a GI50 (BT-549 breast) of 16 µM, a TGI (BT-549 breast) of 72.6 µM and a GI50 (NCI-H23 lung) of 17.1 µM. The TGI (NCI-H23 lung) was 53 µM, the GI50 (SF-295 CNS) was > 100 µM and the TGI (SF-295 CNS) was > 100 µM. The GI50 (UACC-257 melanoma) was 38.6 µM, the TGI (UACC-257 melanoma) was > 100 µM and the GI50 (SF-539 CNS) was 16.8 µM. The TGI (SF-539 CNS) was 40.6 µM, the GI50 (OVCAR-3 ovarian) was 23 µM and the TGI (OVCAR-3 ovarian) was > 100 µM. For the same molecule, the GI50 (PC-3 prostate) was 30.4 µM, the TGI (PC-3 prostate) was > 100 µM and the GI50 (LOX IMVI melanoma) was 1.61 µM. The TGI (LOX IMVI melanoma) was 3.41 µM, the GI50 (K-562 leukemia) was 6.46 µM and the TGI (K-562 leukemia) was > 100 µM. For the same molecule, the GI50 (SNB-19 CNS) was 51 µM, the TGI (SNB-19 CNS) was > 100 µM and the GI50 (ACHN renal) was 13.6 µM. For the same molecule, the TGI (ACHN renal) was 46.2 µM, the GI50 (HCC-2998 colon) was 37.9 µM and the TGI (HCC-2998 colon) was > 100 µM. For the same molecule, the GI50 (NCI/ADR-RES ovarian) was 30.4 µM, the TGI (NCI/ADR-RES ovarian) was > 100 µM and the GI50 (HT29 colon) was 11.8 µM. For the same molecule, the TGI (HT29 colon) was 33 µM, the GI50 (SK-MEL-5 melanoma) was 29.1 µM and the TGI (SK-MEL-5 melanoma) was > 100 µM. For the same molecule, the GI50 (MDA-MB-435) was 26.5 µM, the TGI (MDA-MB-435) was > 100 µM and the GI50 (NCI-H522 lung) was 1.47 µM. For the same molecule, the TGI (NCI-H522 lung) was 3.01 µM, the GI50 (OVCAR-5 ovarian) was 23.3 µM and the TGI (OVCAR-5 ovarian) was > 100 µM. The GI50 (MCF7 breast) was 1.78 µM, the TGI (MCF7 breast) was 34.6 µM and the GI50 (U251 CNS) was 18.4 µM. The TGI (U251 CNS) was 88.6 µM, the GI50 (SK-MEL-28 melanoma) was 54.4 µM and the TGI (SK-MEL-28 melanoma) was > 100 µM. It also gave a GI50 (MOLT-4 leukemia) of 3.74 µM, a TGI (MOLT-4 leukemia) of 34.9 µM and a GI50 (COLO 205 colon) of 18.9 µM. The TGI (COLO 205 colon) was 71.4 µM, the GI50 (EKVX NSCLC) was 58.3 µM and the TGI (EKVX NSCLC) was > 100 µM. It also gave a GI50 (SN12C renal) of 13.5 µM, a TGI (SN12C renal) of 34.3 µM and a GI50 (OVCAR-4 ovarian) of 20.1 µM. The TGI (OVCAR-4 ovarian) was 95.6 µM, the GI50 (UACC-62 melanoma) was 21 µM and the TGI (UACC-62 melanoma) was > 100 µM. For the same molecule, the GI50 (NCI-H460 lung) was 25.3 µM, the TGI (NCI-H460 lung) was > 100 µM and the GI50 (IGROV1 ovarian) was 13.8 µM. The TGI (IGROV1 ovarian) was 51.4 µM, the GI50 (SNB-75 CNS) was 4.47 µM and the TGI (SNB-75 CNS) was > 100 µM. The GI50 (TK-10 renal) was 36.9 µM, the TGI (TK-10 renal) was > 100 µM and the GI50 (HS 578T breast) was 29.3 µM. The TGI (HS 578T breast) was > 100 µM, the GI50 (MDA-MB-468 breast) was 3.78 µM and the TGI (MDA-MB-468 breast) was 20.2 µM. The GI50 (A549 NSCLC) was 18.8 µM, the TGI (A549 NSCLC) was > 100 µM and the GI50 (NCI-H226 lung) was 31.5 µM. The TGI (NCI-H226 lung) was > 100 µM.

— PubChem BioAssay (NCI)
